How the values were obtained:
[1] = system: RPWE-1; assay: Cancer cell cytotoxicity assay, RPWE-1; format: cell-based; conditions: RPWE-1, Normal prostate epithelium
Method: (§1) The effect of the compounds of the invention on tumor cells was determined by the assay described by Latham et al., Oncogene 12:827-837 (1996). Tumor cells K562 (chronic myelogenous leukemia; leukemia cell line +ve for Bcr-Abl) or DU145 (prostate cancer) were plated in 12-well dishes at a cell density of 2.5×10^4 cells well. The plated cells were treated 24 hours later with a compound of the invention dissolved in DMSO at multiple concentrations ranging from 0.01 μM to 100 μM. The plates were examined 96 hours later under an inverted microscope, Olympus CK-2 using a 10× objective, and compound activity was noted by physical observation. When necessary, the total number of viable cells was determined by trypsinizing the wells and counting the number of viable cells, as determined by trypan blue exclusion, using a hemacytometer. Where “Lower” and “Upper” value are provided in Table 5, the IC50 was determined to be within that range. […]
(§2) The cytotoxicity of Compound 42, (Z)-6-((2,6-dichlorobenzyl)sulfonyl)-2-(4-hydroxy-3-nitrobenzylidene)-2H-benzo[b][1,4]thiazin-3(4H)-one, was determined according the assay method of Example 7 on the prostate (androgen dependent or independent), breast and pancreatic cancer cell lines listed in Table 6A, below, and the additional cell lines listed in Table 6B, below. […]

[2] = system: HCT-116; assay: Cancer cell cytotoxicity assay, HCT-116; format: cell-based; conditions: Homo sapiens; HCT-116, Colon cancer
Method: as §1, §2

[3] = system: HMSC.hTERT; assay: Cytotoxicity assay, human mesenchymal stem cell line HMSC.hTERT; format: cell-based
Method: as §1, §2

[4] = molecular target: T1, PIM1 (Homo sapiens, UniProt P11309); assay: PIM1 inhibition (32P-ATP kinase assay); format: biochemical; conditions: K9 Peptide substrate, 20 μM cold ATP
T1 construct: PIM1 (human full length protein; Invitrogen PV3503); purchased Invitrogen PV3503
T1 sequence (P11309 whole entry): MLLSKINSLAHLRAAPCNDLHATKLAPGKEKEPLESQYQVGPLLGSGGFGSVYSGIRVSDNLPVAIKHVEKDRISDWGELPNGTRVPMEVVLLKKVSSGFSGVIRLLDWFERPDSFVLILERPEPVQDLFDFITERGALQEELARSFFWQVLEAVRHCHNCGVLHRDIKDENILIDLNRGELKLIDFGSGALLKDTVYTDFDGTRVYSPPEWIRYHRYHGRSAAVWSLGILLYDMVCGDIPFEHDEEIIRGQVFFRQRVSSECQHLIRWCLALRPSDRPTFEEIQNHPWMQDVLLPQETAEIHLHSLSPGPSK
Method: The ability of Compound 42 to inhibit the activity of the kinase proto-ocogene pim-was determined as follows. Ten nanograms of PIM1 (human full length protein; Invitrogen PV3503) was diluted into kinase buffer (20 mM Tris pH 7.5, 10 mM MgCl2, 0.01% NP-40, 1 mM EGTA, 2 mM DTT) and incubated with varying concentrations of Compound 42 at room temperature for 30 minutes. The kinase reactions were initiated by the addition of 20 μM of PIM1 specific synthetic peptide substrate (K9 Peptide; p70S6 Kinase Substrate; AnaSpec, San Jose, Calif.), 20 μM cold ATP, and 20 μCi γ-^32P-ATP. The reactions were incubated at 30° C. for 20 minutes and terminated by the addition of 0.5M o-Phosphoric acid. 10 μl of the reaction mixture was spotted on a P-30 Filtermat (PerkinElmer) and developed using autoradiography or phosphorimaging.

[5] = system: MDA.MB-231 breast cancer cells; assay: Cell cycle arrest in cancer cells; format: cell-based; conditions: increasing concentrations
Source text: MDA.MB-231 breast cancer cells treated with increasing concentrations Compound 42

[6] = system: DU145 (prostate cancer); assay: Cytotoxicity assay, DU145 tumor cells; format: cell-based; conditions: Homo sapiens
Method: The effect of the compounds of the invention on tumor cells was determined by the assay described by Latham et al., Oncogene 12:827-837 (1996). Tumor cells K562 (chronic myelogenous leukemia; leukemia cell line +ve for Bcr-Abl) or DU145 (prostate cancer) were plated in 12-well dishes at a cell density of 2.5×10^4 cells well. The plated cells were treated 24 hours later with a compound of the invention dissolved in DMSO at multiple concentrations ranging from 0.01 μM to 100 μM. The plates were examined 96 hours later under an inverted microscope, Olympus CK-2 using a 10× objective, and compound activity was noted by physical observation. When necessary, the total number of viable cells was determined by trypsinizing the wells and counting the number of viable cells, as determined by trypan blue exclusion, using a hemacytometer. Where “Lower” and “Upper” value are provided in Table 5, the IC50 was determined to be within that range. When only a “Lower” value is provided and no “Upper” value is listed, the IC50 was that value, or less than or greater than that value, as set forth in the Table.
The cytotoxicity of Compound 42, (Z)-6-((2,6-dichlorobenzyl)sulfonyl)-2-(4-hydroxy-3-nitrobenzylidene)-2H-benzo[b][1,4]thiazin-3(4H)-one, was determined according the assay method of Example 7 on the prostate (androgen dependent or independent), breast and pancreatic cancer cell lines listed in Table 6A, below, and the additional cell lines listed in Table 6B, below. The human mesenchymal stem cell line HMSC.hTERT and normal human fibroblast cell line HFL was included in the test.

IC50 [4]: 226 nM
SMILES: O=C1Nc2cc(S(=O)(=O)Cc3c(Cl)cccc3Cl)ccc2S/C1=C\c1ccc(O)c([N+](=O)[O-])c1 [Compound 42, (Z)-6-((2,6-dichlorobenzyl)sulfonyl)-2-(4-hydroxy-3-nitrobenzylidene)-2H-benzo[b][1,4]thiazin-3(4H)-one]
GI50 [1]: 100 nM | GI50 [2]: 150 nM | cell death in the normal human stem cell line [3]: did not cause cell death | GI50 ([3]; Human Mesenchymal Stem cells): > 10000 nM | cell cycle arrest in cancer cells [5]: induces cell cycle arrest | IC50 ([6]; DU-145, 96 h treatment, lower limit of the IC50 range, or the IC50 itself (or its bound) where no Upper value is listed, read-out: DU145 IC50 (μm) Lower (μm)): 150 nM | GI50 ([6]; DU-145, Prostate Cancer (Androgen Independent)): 160 nM
